This note sets out measurements from PubChem BioAssay (NCI).

Where “and” joins values, the source holds several entries; their conditions need not be identical. Equal entries are not always repeated.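 Method: 48-hour compound exposure of cells in 96-well plates, five concentrations, linear interpolation of endpoints. GI50 is the concentration that inhibits growth by half. TGI: total growth inhibition.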

Common to all, as to assay: DTP human tumour cell line panel, 48 h
The subject of assay [1] is COLO 205 colon.
Assay [2] has as its system ACHN renal.
The test system of assay [3] is HCT-116 colon.
The test system of assay [4] is HT29 colon.
The test system of assay [5] is SK-MEL-28 melanoma.
Assay [6] has as its system NCI-H23 lung.
In assay [7] the test system is RXF 393 renal.
Assay [8] concerns RPMI-8226 leukemia.
In assay [9] the test system is HL-60(TB) leukemia.

As to `Nn1c(CCCCCCCCc2nnc(COc3c(O)ccc4ccccc34)n2N)nnc1COc1c(O)ccc2ccccc12`, the TGI in [1], in assay [2], in assay [3], in assay [4], in assay [5] and in [6] was more than 100 µM throughout. The TGI in [7] and in [8] was more than 100 µM throughout.
`C=C1C(O)C2(O)OCC34C(CC5C(C)=CC(=O)C(O)C5(C)C23)OC(=O)C(OC(=O)C/C=C(\C)CCCCC)C14` (centres undefined): the GI50 (usually the concentration at which growth is held to half of that of the control) in assay [1] is 0.00123 µM; in assay [9] it was less than 0.001 µM; in assay [3] it was less than 0.001 µM; in [4] it was less than 0.001 µM; in assay [5], less than 0.001 µM; in assay [6], less than 0.001 µM. Besides, the GI50 in assay [7] and in assay [8] was less than 0.001 µM throughout. The TGI (in general, the concentration giving total growth inhibition) is 0.00812 µM and 0.0206 µM and 0.0272 µM in assay [1]; 0.00856 µM and 0.0518 µM in assay [2]; 0.00351 µM and 0.0245 µM in assay [7].
Regarding `COc1ccc2c(c1)O/C(=C\c1cccc(OCC(=O)Nc3nc4c(s3)CCCC4)c1)C2=O`, the GI50 in assay [1] is more than 100 µM; in [2], 4.43 µM; in assay [9] it was 3.32 µM; in [3], more than 43.8 µM; in assay [4] it was 25.1 µM; in assay [5], more than 100 µM. Moreover, the values for the GI50 in assay [6], in assay [7] and in [8] were 5.52 µM, 2.11 µM and 3.41 µM, respectively. The TGI was more than 100 µM in assay [1]; 33.6 µM in assay [2]; 18.5 µM in assay [9]; more than 100 µM in assay [3]; more than 100 µM in assay [4]; more than 100 µM in assay [5]. Moreover, the results for the TGI in assay [6], in assay [7] and in assay [8] were more than 100 µM, 4.48 µM and more than 33.2 µM, respectively.
As for `N#Cc1c(-c2ccccc2)/c(=C\Nc2ccc(Cl)cc2)c(=O)n2c1nc1ccccc12`, the TGI was more than 100 µM in assay [1]; more than 100 µM in [2]; 19.6 µM in assay [3]; more than 100 µM in assay [5]; more than 100 µM in assay [6]; more than 100 µM in assay [7]. In addition, the TGI in assay [8] worked out at 45.9 µM.
With `CCCCCCCCCC[C@H](O)[C@H]1CC[C@H]([C@H]2CC[C@H]([C@H](O)CC[C@H](O)CCCCCCC[C@@H](O)CC3=C[C@H](C)OC3=O)O2)O1`, the TGI in assay [1] was 78.5 µM; in assay [2] it was more than 100 µM; in assay [3], more than 100 µM; in assay [5], more than 100 µM; in [6] it was more than 100 µM; in assay [7], 88 µM. In addition, in [8], the TGI was found to be 10.5 µM. In addition, the GI50 in assay [2] was 10 µM; in assay [5], more than 100 µM.
Take `COc1cc(/C=C/C(=O)O)ccc1C(=O)O/C=C/c1ccccc1`: the TGI in assay [1], in [9], in [3], in assay [4], in [5] and in assay [6] was more than 100 µM throughout. Moreover, the TGI in [7] and in assay [8] was more than 100 µM throughout.
On to `O=C1CCC(=Nc2ccc(Cl)cc2)N1C(=O)COc1ccc(OCC(=O)N2C(=O)CSC2=Nc2ccc(Cl)cc2)cc1`, for which the TGI in [1], in assay [2], in [9], in assay [3], in assay [4] and in assay [5] was more than 100 µM each time. The TGI in [6], in [7] and in [8] was more than 100 µM throughout.
For `O=C(CP(=O)(O)O)c1cccs1`, the TGI in [1], in assay [2], in assay [9], in [3], in assay [4] and in [5] was more than 100 µM in each case. In addition, the TGI in [6] and in [8] was more than 100 µM each time.
Consider `C1CCSCCCCSCCCCSCCCCSC1`, for which the TGI in assay [1], in [2], in assay [3], in [4], in [5] and in [6] was more than 100 µM each time. Further, the TGI in [7] and in assay [8] was more than 100 µM each time.
For the compound `COCOc1ccc(OC)cc1`, the TGI in assay [1], in assay [9], in assay [3], in assay [4], in [5] and in assay [6] was more than 100 µM throughout. Also, the TGI in [7] and in assay [8] was more than 100 µM each time.
For `CSC1CC2C(CC1(C)O)C2(C)C` (centres undefined), the TGI in assay [1] was more than 100 µM; in assay [2], more than 100 µM; in [9] it was 70.5 µM and > 100 µM; in [3], more than 100 µM; in assay [4], more than 100 µM; in assay [5], more than 100 µM. In addition, the TGI in assay [6], in assay [7] and in assay [8] was more than 100 µM each time. The GI50 in assay [9] is 19 µM and > 100 µM; in assay [7] it was 29.6 µM and > 100 µM.
Consider `CCC12C[N+]3([O-])CCc4c([nH]c5ccccc45)C(C(=O)OC)(c4cc5c(cc4OC)N(C)C4C(O)(C(=O)OC)C(OC(C)=O)C6(CC)C=CCN7CCC54C76)CC(C3)C1O2` (centres undefined), for which the TGI was 4.44 µM in assay [1]; 31.9 µM in [2]; 11.6 µM in assay [3]; 17.2 µM in assay [4]; 0.959 µM in assay [5]; 8.49 µM in assay [6]. Further, the figures for the TGI in assay [7] and in assay [8] were 4.65 µM and 1.43 µM, respectively.
As for `CN(C)C(CN)CC1=C(CC(CN)N(C)C)CCC1` (centres undefined), the TGI in assay [1], in assay [9], in [3], in assay [4], in assay [5] and in [6] was more than 100 µM in each case. In addition, the TGI in [7] and in assay [8] was more than 100 µM in each case.
Turning to `C/C(=C\c1ccccc1)C(=O)CCN1CCOCC1`, the TGI in [1] was 31 µM; in [9], more than 74.3 µM; in assay [3], more than 56.4 µM; in assay [4], 35.7 µM; in assay [5] it was 35.4 µM; in [6], 32 µM. For the same compound, the TGI in assay [7] was 35.2 µM; in assay [8], 20.6 µM.
For the compound `c1ccc2c(c1)[nH]c1nc3cc(-c4ccc5nc6c(nc5c4)[nH]c4ccccc46)ccc3nc12`, the TGI in assay [2], in assay [9], in assay [3], in [4], in [5] and in [6] was more than 100 µM throughout. Besides, the TGI in [7] and in [8] was more than 100 µM throughout.
Take `COC(=O)c1c(C)cccc1/C=C1/Cc2c(C)cccc2C1=O`: the TGI in [2], in assay [9], in assay [3], in [4], in assay [5] and in [6] was more than 100 µM each time. Besides, the figures for the TGI in assay [7] and in assay [8] were more than 100 µM and 8.51 µM, respectively.
As to `CCCCN1CCN(c2ccc3nc(-c4ccc5nc(-c6ccc(C(F)(F)F)cc6)[nH]c5c4)[nH]c3c2)CC1`, the GI50 was 1.45 µM in [1]; 1.38 µM in [2]; 0.923 µM in [9]; 0.348 µM in assay [3]; 0.385 µM in [4]; 1.69 µM in [5]. Moreover, the figures for the GI50 in assay [6], in assay [7] and in assay [8] were 1.68 µM, 1.13 µM and 0.201 µM, respectively. In addition, the TGI in assay [1] is 2.95 µM; in assay [2], 2.68 µM; in assay [9] it was 2.63 µM; in assay [3], 1.27 µM; in [4] it was 1.45 µM; in assay [5], 3.19 µM. The values for the TGI in [6], in assay [7] and in assay [8] were 3.42 µM, 2.49 µM and 0.475 µM, respectively.
As for `CCOC(=O)C1=C(C(C)=O)CSC(c2ccccc2)=N1`, the TGI in [1], in assay [9], in [3], in assay [4], in assay [5] and in [6] was more than 100 µM throughout. The TGI in assay [7] and in assay [8] was more than 100 µM each time.
For the compound `Nc1nn2c(C(Br)Br)cc(C(Br)Br)nc2c1[N+](=O)[O-]`, the TGI in assay [1] is 1.94 µM; in [2], 2.1 µM; in assay [9], 0.431 µM; in assay [3], 2.23 µM; in [4], 3.28 µM; in assay [5] it was 2.88 µM. In addition, the TGI in assay [6] was 4.61 µM; in [7] it was 4.35 µM; in assay [8] it was 1.72 µM.
For `O=C1/C(=C/c2ccccc2S)N=C(c2ccccc2)N1c1nc2ccc(Sc3ccccc3)cc2[nH]1`, the TGI in [1] is 34.6 µM; in assay [2] it was more than 100 µM; in [9], 52.1 µM; in assay [3], more than 100 µM; in assay [4] it was 43.1 µM; in [5], more than 100 µM. Besides, the values for the TGI in assay [6], in [7] and in assay [8] were more than 100 µM, more than 100 µM and 65.7 µM, respectively.
